Reference: US12496306B2 (REMEDY PHARMACEUTICALS, INC., priority 2021, dated 2025)

Assay: Compounding experiments, bulk solution stability in Tris buffer
Type: physicochemical
Conditions: 1 mg/ml, at least 24 h, room temperature
Source text: This is because Tris buffers effectively in the range of pH 7-9 (i.e. ±1 pH unit from pKa of 8.1). Outside of this pH range, the bulk solution is no longer buffered even with the addition of Tris. To maintain bulk solution stability, it is necessary to increase the compounding pH above 9, which is outside of the buffering range of Tris.

For `COc1ccc(Cl)cc1C(=O)NCCc1ccc(S(=O)(=O)NC(=O)NC2CCCCC2)cc1` [glibenclamide, 5-chloro-N-(4-[N-(cyclohexylcarbamoyl)sulfamoyl]phenethyl)-2-methoxybenzamide], the “minimum compounding pH required to maintain bulk solution stability” value was ≥ 9.1.
